Test results as given in patent JP2007509054A, “血管健康を促進するシリルフェノール” (Amylin Pharmaceuticals LLC, priority 2003, dated 2005).

Assays:
[1] = tested on: VCAM-1 (VCAM−1); assay: IL-4 induced VCAM-1 expression in human coronary artery smooth muscle cells (CASMC); type: cell-based; settings: IL-4 100 nmol/L, Fig. 2
[2] = tested on: VCAM-1 (VCAM−1); assay: Cytokine (TNF-α) induced VCAM-1 expression in human umbilical vein endothelial cells (HUVEC); type: cell-based; settings: Fig. 2
[3] = tested on: serum lipids (血清脂質); assay: Ex vivo copper-induced lipid peroxidation of serum lipids (lag phase), rabbits fed compound for 70 days; type: in vivo; settings: rabbit, Fig. 1
[4] = Serum antioxidant activity in rats fed AC3056 in the diet; type: in vivo, rat; settings: rats fed a diet containing AC3056
[5] = Serum concentration in rats fed AC3056 in the diet; type: in vivo, rat; settings: rats fed a diet containing AC3056
[6] = tested on: carotid artery (頚動脈); assay: Mechanical carotid injury model in ApoE-/- mice: quantitative morphometry; type: in vivo, mouse; settings: ApoE-/- male mice, high-fat diet with 1.25% cholesterol, treated 18 h before and daily for 28 days after injury, Fig. 7
[7] = tested on: leukocyte recruitment (白血球動員); assay: Mechanical carotid injury model in ApoE-/- mice: CD45-positive cells / leukocyte recruitment; type: in vivo, mouse; settings: ApoE-/- male mice, treated 18 h before and daily for 28 days after injury, Fig. 8

SMILES | inhibition of IL-4 induced VCAM-1 expression [1] | inhibition of cytokine-induced (TNF-α) VCAM-1 expression [2] | increase in lag phase versus serum concentration [3] | antioxidant activity in serum [4] | mean serum concentration [5] [ng/mL] | intima/media ratio [6] | mean lumen thickness [6] | mean neointimal thickness [6] | leukocyte recruitment to the neointimal space after vascular injury (CD45-positive cells) [7]
CC(C)(Sc1cc(C(C)(C)C)c(O)c(C(C)(C)C)c1)Sc1cc(C(C)(C)C)c(O)c(C(C)(C)C)c1 [プロブコール] | 本発明の化合物より一般的に有効ではない | 同様の濃度範囲にて有効ではない |  |  |  |  |  |  | 
COc1ccc([Si](C)(C)COc2cc(C(C)(C)C)c(O)c(C(C)(C)C)c2)cc1 [AC3056] |  |  | 血清濃度に比例する | 血清中の抗酸化活性の増加 | 17700 | 内膜/中膜の比が低下する | 平均の内腔厚みが増加する | 平均の新血管内膜の厚みが低下する | 白血球動員を阻害する
